US20250312334A1, “COMPOSITION CONTAINING ARIPIPRAZOLE AS ACTIVE INGREDIENT FOR ENHANCING ANTICANCER EFFECT OF RAF INHIBITOR” (KOREA INSTITUTE OF RADIOLOGICAL & MEDICAL SCIENCES, priority 2022, published 2025)

System: COLO 205 cells
Assay: Western blot of NOXA and PUMA protein expression after aripiprazole treatment
Assay type: cell-based
Details: 8 hours after treatment, Western blot (FIG. 1)
Description: To identify an effect of aripiprazole on the expression of NOXA and PUMA proteins in cancer cells, COLO 205 cells were treated with aripiprazole. Eight hours later, proteins were extracted from cells after washing with PBS, and a level of NOXA and PUMA expression was checked via Western blot.

O=C1CCc2ccc(OCCCCN3CCN(c4cccc(Cl)c4Cl)CC3)cc2N1 [aripiprazole]
expression of NOXA protein: increased | expression of PUMA protein: increased
